{"source": "patent US8268863B2", "about": "(priority 2007, dated 2012)", "key": {"human mu opioid receptor [1]": {"target": "T1, human mu opioid receptor (Homo sapiens, UniProt P35372)", "T1 construct": "host or cells: CHO-K1", "T1 sequence (P35372 whole entry)": "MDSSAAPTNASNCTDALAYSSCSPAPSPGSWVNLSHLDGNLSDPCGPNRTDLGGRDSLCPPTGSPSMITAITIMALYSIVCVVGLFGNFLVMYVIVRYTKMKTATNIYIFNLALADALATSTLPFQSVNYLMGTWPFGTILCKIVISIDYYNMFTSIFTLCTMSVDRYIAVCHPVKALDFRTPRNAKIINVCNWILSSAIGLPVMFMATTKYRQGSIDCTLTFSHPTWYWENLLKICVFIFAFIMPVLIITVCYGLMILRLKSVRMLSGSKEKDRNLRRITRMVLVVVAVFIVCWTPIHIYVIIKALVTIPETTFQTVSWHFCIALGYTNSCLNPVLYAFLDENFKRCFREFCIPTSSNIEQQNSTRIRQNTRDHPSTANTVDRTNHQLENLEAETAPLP", "test": "Human mu GTP-Eu nucleotide exchange assay (agonist mediated activation)", "assay_type": "biochemical", "conditions": "bound GTP-Eu relative to DAMGO (IA=100), CHO-K1 membranes expressing human mu opioid receptor; read-out: intrinsic activity (IA)"}, "human mu opioid receptor [2]": {"target": "T1, human mu opioid receptor", "test": "Radioligand binding assay, human mu opioid receptor", "conditions": "[3H]-Diprenorphine displacement, membranes of CHO-K1 cells; read-out: pKi at the human mu opioid receptor (converted)"}}}
{"smiles": "CS(=O)(=O)NC(CCN1[C@@H]2CC[C@H]1C[C@@H](c1cccc(C(N)=O)c1)C2)c1ccccc1", "note": "(some centres unmarked) [Example 104]", "values": [{"measurement": "Emax", "setting": "human mu opioid receptor [1]", "result": "≥ 30", "unit": "%"}]}
{"smiles": "O=C(CO)NC(CC1CCCCC1)CN1[C@@H]2CC[C@H]1C[C@@H](c1cccc(O)c1)C2", "note": "(stereo partly drawn) [Example 2, N-{1-cyclohexylmethyl-2-[3-endo-(3-hydroxy-phenyl)-8-azabicyclo[3.2.1]oct-8-yl]ethyl}-2-hydroxyacetamide]", "values": [{"measurement": "Emax", "setting": "human mu opioid receptor [1]", "result": 24, "unit": "%"}, {"measurement": "Ki", "setting": "human mu opioid receptor [2]", "result": 0.0631, "unit": "nM"}]}
{"smiles": "NC(=O)CCC(=O)NC(CC1CCCCC1)CN1[C@@H]2CC[C@H]1C[C@@H](c1cccc(O)c1)C2", "note": "(stereo partly drawn) [Example 3, N-{1-cyclohexylmethyl-2-[3-endo-(3-hydroxy-phenyl)-8-azabicyclo[3.2.1]oct-8-yl]ethyl}succinamide]", "values": [{"measurement": "Emax", "setting": "human mu opioid receptor [1]", "result": 3, "unit": "%"}, {"measurement": "Ki", "setting": "human mu opioid receptor [2]", "result": 0.126, "unit": "nM"}]}
{"smiles": "O=C(NCC1CCCCC1)NC(CC1CCCCC1)CN1[C@@H]2CC[C@H]1C[C@@H](c1cccc(O)c1)C2", "note": "(stereo partly drawn) [Example 4, 1-cyclohexylmethyl-3-{1-cyclohexylmethyl-2-[3-endo-(3-hydroxyphenyl)-8-azabicyclo[3.2.1]oct-8-yl]ethyl}urea]", "values": [{"measurement": "Emax", "setting": "human mu opioid receptor [1]", "result": -3, "unit": "%"}, {"measurement": "Ki", "setting": "human mu opioid receptor [2]", "result": 0.1, "unit": "nM"}]}
{"smiles": "O=C(NC(CC1CCCCC1)CN1[C@@H]2CC[C@H]1C[C@@H](c1cccc(O)c1)C2)C1CCCCC1", "note": "(stereo partly drawn) [Example 1, cyclohexanecarboxylic acid {1-cyclohexylmethyl-2-[3-endo-(3-hydroxyphenyl)-8-azabicyclo[3.2.1]oct-8-yl]-ethyl}amide]", "values": [{"measurement": "Emax", "setting": "human mu opioid receptor [1]", "result": -9, "unit": "%"}, {"measurement": "Ki", "setting": "human mu opioid receptor [2]", "result": 0.0631, "unit": "nM"}]}
{"smiles": "CC(C)C[C@H](NC(=O)C(Cc1ccccc1)CN1[C@@H]2CC[C@H]1C[C@@H](c1cccc(C(N)=O)c1)C2)C(N)=O", "note": "(mixture of isomers) [Example 6, 3-endo-{8-[(S)-2-(S)-1-carbamoyl-3-methyl-butylcarbamoyl)-3-phenylpropyl]-8-azabicyclo[3.2.1]oct-3-yl}benzamide and 3-endo-{8-[(R)-2-((S)-1-carbamoyl-3-methylbutylcarbamoyl)-3-phenyl-propyl]-8-azabicyclo[3.2.1]oct-3-yl}benzamide]", "values": [{"measurement": "Emax", "setting": "human mu opioid receptor [1]", "result": -7, "unit": "%"}, {"measurement": "Ki", "setting": "human mu opioid receptor [2]", "result": 0.0631, "unit": "nM"}]}
{"smiles": "O=C(NC(CCc1ccccc1)CN1[C@@H]2CC[C@H]1C[C@@H](c1cccc(O)c1)C2)c1ccccc1", "note": "(some centres unmarked) [Example 76]", "values": [{"measurement": "Emax", "setting": "human mu opioid receptor [1]", "result": "≥ 30", "unit": "%"}]}
{"smiles": "Cc1ccc(S(=O)(=O)NC(CC2CCCCC2)CN2[C@@H]3CC[C@H]2C[C@@H](c2cccc(O)c2)C3)cc1", "note": "(stereo partly drawn) [Example 5, N-{1-cyclohexylmethyl-2-[3-endo-(3-hydroxy-phenyl)-8-azabicyclo[3.2.1]oct-8-yl]ethyl}-4-methyl-benzenesulfonamide]", "values": [{"measurement": "Emax", "setting": "human mu opioid receptor [1]", "result": 2, "unit": "%"}, {"measurement": "Ki", "setting": "human mu opioid receptor [2]", "result": 0.794, "unit": "nM"}]}
